Results taken from patent US12433860B2, “Treatment of multiple sclerosis comprising DHODH inhibitors” (Immunic AG, priority 2021, dated 2025).
Counter-ions that a name gives are not always drawn.

Legend:
[1] = system: patients with relapsing-remitting multiple sclerosis; experiment: EMPhASIS Cohort 1: annualized relapse rate and time-to-first relapse; type: in vivo, human; conditions: for adjusted mean annualized relapse rate: baseline until week 24
Description: Other secondary endpoints included: the difference in the cumulative number of combined unique active lesions up to week 24 between vidofludimus calcium 45 mg and vidofludimus calcium 30 mg; number or cumulative number of gadolinium-enhancing, T1, or T2 lesions up to 24 weeks; annualized relapse rate from baseline until week 24; proportion of relapse-free patients up to week 24; time-to-first relapse; change in EDSS score from baseline; proportion of patients with EDSS score progression; brain atrophy and other MRI endpoints; and safety and tolerability as assessed by the investigators. Annualized relapse rate was defined as the total number of confirmed relapses divided by the real exposure time in years assessed over the time during the double-blind treatment period. EDSS progression was defined as an increase compared to baseline of at least 1.0 point for patients with a baseline EDSS score of 1.0 to 4.0 or of at least 1.5 points for patients with a baseline EDSS score of 0. Vidofludimus calcium trough concentrations (weeks 6 and 24) were used to assess the correlation between pharmacokinetics and MRI-based assessments. The effects of vidofludimus calcium on serum neurofilament (baseline and week 24) were also analyzed. All other secondary efficacy analyses were reported using descriptive statistics and were considered exploratory. The mean number or cumulative number of gadolinium-enhancing (Gd+), T1, or T2 lesions were summarized descriptively and analyzed with a generalized linear model as described earlier but adjusted for MRI field strength and baseline number of gadolinium-enhancing lesions only. Annualized relapse rate was compared between treatment groups and between the pooled vidofludimus calcium groups and placebo using a generalized linear model adjusted for baseline number of gadolinium-enhancing lesions, which included the offset term for real exposure time. Time-to-first relapse up to 24 weeks was analyzed using a Cox proportional hazards model, with covariates for treatment group and baseline gadolinium-enhancing lesions strata. The proportion of patients free of relapse was estimated using the Kaplan-Meier method. Statistical analyses were done using SAS version 9.4 (SAS Institute, Cary, NC, USA).

[2] = system: experimental autoimmune encephalomyelitis; conditions: rodents; cited from earlier work
[3] = system: patients with relapsing-remitting multiple sclerosis; experiment: EMPhASIS phase 2 trial Cohort 1: MRI lesions up to 24 weeks; type: in vivo, human
Description: Study design and participants: […] Eligible patients were randomly assigned in a 1:1:1 ratio by an interactive web response system to receive once-daily vidofludimus calcium (30 mg or 45 mg) or placebo over a 24 week period. Procedures: Participants took vidofludimus calcium (30 mg or 45 mg) or placebo once daily in the morning in a fasted state (before breakfast) for 24 weeks. To minimize the risk of changes to uric acid during the first seven days of dosing (induction phase), the assigned dose (containing vidofludimus calcium 15 mg, vidofludimus calcium 22.5 mg or placebo) was taken days 0-6 and then the full dose thereafter (maintenance phase). Participants underwent standardized brain MRI scans at baseline and every 6 weeks after the first day of dosing until week 24. MRI scans were centrally analyzed by a blinded and independent MRI center. […] In the case of suspected or protocol-defined confirmed relapse, corticosteroid treatment was provided at the discretion of the investigator. Pharmacokinetic and pharmacodynamic measurements were also collected. Outcomes: The primary endpoint was the difference in the cumulative number of combined unique active (CUA) lesions up to week 24 between vidofludimus calcium 45 mg and placebo in the intention-to-treat population (i.e., weeks 6 to 24). The key secondary was the same outcome between vidofludimus calcium 30 mg and placebo. A sensitivity analysis of the primary endpoint and key secondary endpoint was done in the per-protocol population and the modified intention-to-treat population. In addition, prespecified subgroup analyses of the primary endpoint and key secondary endpoint in the intention-to-treat population were done based on baseline demographics (gender, age, weight, country), MRI characteristics (gadolinium-enhancing lesions strata) and clinical characteristics (EDSS score, duration of disease and relapse history). […] Other secondary endpoints included: the difference in the cumulative number of combined unique active lesions up to week 24 between vidofludimus calcium 45 mg and vidofludimus calcium 30 mg; number or cumulative number of gadolinium-enhancing, T1, or T2 lesions up to 24 weeks; annualized relapse rate from baseline until week 24; proportion of relapse-free patients up to week 24; time-to-first relapse; change in EDSS score from baseline; proportion of patients with EDSS score progression; brain atrophy and other MRI endpoints; and safety and tolerability as assessed by the investigators. Annualized relapse rate was defined as the total number of confirmed relapses divided by the real exposure time in years assessed over the time during the double-blind treatment period. EDSS progression was defined as an increase compared to baseline of at least 1.0 point for patients with a baseline EDSS score of 1.0 to 4.0 or of at least 1.5 points for patients with a baseline EDSS score of 0. Vidofludimus calcium trough concentrations (weeks 6 and 24) were used to assess the correlation between pharmacokinetics and MRI-based assessments. The effects of vidofludimus calcium on serum neurofilament (baseline and week 24) were also analyzed. Statistical analysis: The primary and secondary efficacy endpoints were analyzed using a generalized linear model with a negative binomial distribution and a logarithmic link function. Independent effects included in the model were: treatment group; baseline volume of T2 lesions; MRI field strength; and baseline number of gadolinium-enhancing lesions. The natural log transformation of the time from the first dose to the date of the last MRI assessment was included as an offset term to account for different lengths of treatment.

COc1cccc(-c2ccc(NC(=O)C3=C(C(=O)O)CCC3)c(F)c2)c1 [vidofludimus calcium, 1-cyclopentene-1-carboxylic acid, 2-(((3-fluoro-3′-methoxy(1,1′-biphenyl)-4-yl)amino)carbonyl)-, calcium salt (2:1)]
adjusted mean annualized relapse rate ([1]; 30 mg once daily): 0.39 (95% Cl 0.22-0.69)
hazard ratio for relapse up to 24 weeks ([1]; 30 mg vs placebo): 0.58 (95% Cl: 0.26-1.29)
rate ratio, annualized relapse rate ([1]; 30 mg vs placebo): 0.72 (95% Cl 0.34-1.55)
adjusted mean annualized relapse rate ([1]; 45 mg once daily): 0.48 (95% Cl 0.28-0.82)
hazard ratio for relapse up to 24 weeks ([1]; 45 mg vs placebo): 0.78 (95% Cl: 0.37-1.59)
rate ratio, annualized relapse rate ([1]; 45 mg vs placebo): 0.90 (95% Cl 0.44-1.86)
activity in experimental autoimmune encephalomyelitis [2]: dose-dependent activity
suppression of MRI activity ([3]; 30 mg dose, after 24-weeks of treatment, rrMS): 70%
cumulative number of new gadolinium-enhancing lesions at week 24 ([3]; 30 mg once daily): 4.5 (95% Cl 2.7-7.7)
Cumulative CUA lesions up to 24 weeks, adjusted mean (95% CI) ([3]; 30 mg once daily, key secondary endpoint analysis (30 mg vs placebo), intention-to-treat): 4.0 (2.2-7.2)
Cumulative CUA lesions up to 24 weeks, adjusted mean (95% CI) ([3]; 30 mg once daily, secondary endpoint analysis (45 mg vs 30 mg), intention-to-treat): 4.2 (2.5-7.1)
Rate ratio, cumulative CUA lesions up to 24 weeks ([3]; 30 mg vs placebo, intention-to-treat): 0.30
cumulative number of new gadolinium-enhancing lesions at week 24 ([3]; 45 mg once daily): 4.0 (95% Cl 2.1-7.8)
Cumulative CUA lesions up to 24 weeks, adjusted mean (95% CI) ([3]; 45 mg once daily, primary endpoint analysis (45 mg vs placebo), intention-to-treat): 2.4 (1.1-4.9)
Cumulative CUA lesions up to 24 weeks, adjusted mean (95% CI) ([3]; 45 mg once daily, secondary endpoint analysis (45 mg vs 30 mg), intention-to-treat): 4.4 (2.4-8.1)
Rate ratio, cumulative CUA lesions up to 24 weeks ([3]; 45 mg vs placebo, intention-to-treat): 0.38
Rate ratio, cumulative CUA lesions up to 24 weeks ([3]; secondary endpoint (45 mg vs 30 mg), printed in the 30 mg line): 0.96
